Tested on: Botrytis cinerea
Assay: Hyphal growth of Botrytis cinerea in agricultural-chemical three-concentration-level layers-stacked culture media
Assay type: cell-based
Settings: 25 degrees Celsius, seven days; for hyphae of Botrytis cinerea in the culture medium layer (microscope observation from side surface): potato dextrose agar
Excerpt: Botrytis cinerea that is one type of phytopathogenic fungus and a pathogenic fungus of tomato gray mold disease was inoculated into a potato dextrose agar culture medium (Difco (registered trademark) Potato Dextrose Agar). Next, the culture medium was left to stand still at a temperature of 25 degrees Celsius for one week. […] Next, the Botrytis cinerea-cultured potato dextrose agar culture medium in which hyphae sufficiently grew was left under irradiation with black light for not less than four days and left in a room-temperature environment for not less than two weeks to promote spore formation. […] Hereinafter, this aqueous solution is referred to as an “aqueous phytopathogenic fungus solution”.
Agricultural-chemical main-ingredient reagent Captan (manufactured by Tokyo Chemical Industry Co., Ltd. (TCI)) was added to potato dextrose agar culture media, with a charging amount (concentration) changed, to produce three layers of original culture media. Captan was prepared into a dimethyl sulfoxide (DMSO) (manufactured by SIGMA-ALDRICH) solution of Captan at a concentration 100 times a standard use concentration. The solution was charged into and mixed with the potato dextrose agar culture media respectively in amounts of 0 ml, 2 ml, and 10 ml per 1 L of the potato dextrose agar culture media to make three-concentration-level culture media respectively at a Captan concentration of 0 (no blending) and in an amount ⅕ a standard use amount of Captan and the standard use amount. In the present example, the potato dextrose agar culture media containing Captan at three concentration levels were stacked from bottom in an order of the Captan standard amount culture medium, the culture medium in an amount ⅕ the Captan standard amount, and the medium with no Captan blended, and the stacked body was cut out with a glass cylindrical, square, or rectangular shape forming member into a device of the example. […]

O=C1C2CC=CCC2C(=O)N1SC(Cl)(Cl)Cl (stereo not drawn) [Captan]
amount at which an effect against Botrytis cinerea was exerted (effective concentration) (layer where hyphal growth stopped): ⅕
hyphae of Botrytis cinerea in the culture medium layer (microscope observation from side surface) (lower layer 64, Captan blended in the standard amount): No hypha was confirmed
hyphae of Botrytis cinerea in the culture medium layer (microscope observation from side surface) (second layer 63, Captan blended in the amount ⅕ the standard use amount): no hypha of Botrytis cinerea was confirmed

— patent US12054765B2, “Phytopathogenic fungus detecting apparatus, and detecting method and method for selecting concentration of agricultural chemical using same” (Panasonic Intellectual Property Management Co., Ltd., priority 2018, dated 2024)
